Consider two molecules from article PMC5206489 (Journal of chemical information and modeling, 2016).

The subject of one assay is HIV-1YU2. Conditions: read-out: IC50 (HIV-1YU2); viral infectivity, HIV-1YU2 strain; cited from earlier work.
In the next assay the target is core monomeric gp120. The settings on record: binding affinity on gp120 core monomer; cited from earlier work.
The test system of another assay is BG505 SOSIP.664. Nature of the assay: Competition ELISA, BG505 SOSIP.664 binding to CD4IgG2. On the set-up: species or system HIV-1. The settings on record: full dose response not achieved owing to solubility limits. On the technique in general: In an ELISA, binding on a coated surface is turned into a signal by an enzyme label.

`CC1(C)CC(NC(=O)C(=O)Nc2ccc(Cl)cc2)CC(C)(C)N1` [compound 1]: the concentration for half-maximal inhibition (IC50) with HIV-1YU2 was > 100 µM. For the same molecule, the Kd on core monomeric gp120 was 3.7 µM. Besides, the “inhibition of SOSIP trimer protein binding to sCD4 (in words)” value in the assay on BG505 SOSIP.664 was “weaker inhibition”.
Regarding `CN(Cc1ccc2c(c1)C[C@H](CN=C(N)N)[C@H]2NC(=O)C(=O)Nc1ccc(Cl)c(F)c1)C(=N)N` [compound 5], the IC50 in the assay with HIV-1YU2 was 0.8 ± 0.1 µM. Further, the dissociation constant Kd at core monomeric gp120 was 0.1 µM.

One may read the IC50 as the concentration at which inhibition is half-maximal. As usually defined, the Kd is a measure of binding affinity in units of concentration.
